Data reported in ChEMBL document CHEMBL3085777, “Improved synthesis and in vitro evaluation of the cytotoxic profile of oxysterols oxidized at C4 (4α- and 4β-hydroxycholesterol) and C7 (7-ketocholesterol, 7α- and 7β-hydroxycholesterol) on cells of the central nervous system” (Eur J Med Chem, 2013).

Key:
C6 [1] = test: Cytostatic activity against rat C6 cells assessed as growth inhibition after 24 hrs by trypan blue-based cell counting method; type: functional; details: C6, 24 h
C6 [2] = test: Cytostatic activity against rat C6 cells assessed as cell viability after 24 hrs by trypan blue-based cell counting method; type: functional; details: C6, 24 h, read-out: LD50 (the source's name)
[3] = Cytostatic activity against mouse 158N cells assessed as growth inhibition after 24 hrs by trypan blue-based cell counting method
[4] = Cytostatic activity against mouse 158N cells assessed as cell viability after 24 hrs by trypan blue-based cell counting method; details: read-out: LD50
[5] = Growth inhibition of BALB/cJRj mouse astrocytes/oligodendrocytes at 50 uM after 24 hrs by trypan blue-based cell counting method
[6] = Cytotoxicity against BALB/cJRj mouse astrocytes/oligodendrocytes assessed as cell viability at 50 uM after 24 hrs by trypan blue-based cell counting method; details: for Activity: 24 h, 50 µM; for viability at 24 h, 50 µM: BALB/cJRj, astrocytes/oligodendrocytes, read-out: Activity
[7] = Growth inhibition of human SK-N-BE cells after 24 hrs by trypan blue-based cell counting method; type: functional
[8] = Cytotoxicity against human SK-N-BE cells assessed as cell viability after 24 hrs by trypan blue-based cell counting method; type: functional; details: read-out: LD50 (the source's name)
C6 [9] = test: Growth inhibition of rat C6 cells after 24 hrs by trypan blue-based cell counting method; type: functional; details: C6, 24 h
C6 [10] = test: Cytotoxicity against rat C6 cells assessed as cell viability after 24 hrs by trypan blue-based cell counting method; type: functional; details: C6, 24 h, read-out: LD50 (the source's name)
[11] = Growth inhibition of mouse 158N cells after 24 hrs by trypan blue-based cell counting method
[12] = Cytotoxicity against mouse 158N cells assessed as cell viability after 24 hrs by trypan blue-based cell counting method; details: read-out: LD50

SMILES	IC50 (C6 [1]) [µM]	CC50 (C6 [2]) [µM]	IC50 [3] [µM]	CC50 at 24 h [4] [µM]	Activity [5]	Activity [6]	IC50 [7] [µM]	CC50 [8] [µM]	IC50 (C6 [9]) [µM]	CC50 (C6 [10]) [µM]	IC50 [11] [µM]	CC50 at 24 h [12] [µM]	viability at 24 h, 50 µM [6] [%]
CC(C)CCC[C@@H](C)[C@H]1CC[C@H]2[C@@H]3CC=C4[C@H](O)[C@@H](O)CC[C@]4(C)[C@H]3CC[C@]12C	≥ 160	> 160	40	> 160	Non-toxic	Non-toxic	> 160	> 160	–	–	–	–	–
CC(C)CCC[C@@H](C)[C@H]1CC[C@H]2[C@@H]3[C@H](O)C=C4C[C@@H](O)CC[C@]4(C)[C@H]3CC[C@]12C	–	–	–	–	Non-toxic	Non-toxic	≥ 160	> 160	40	≥ 160	15	60	–
CC(C)CCC[C@@H](C)[C@H]1CC[C@H]2[C@@H]3CC=C4[C@@H](O)[C@@H](O)CC[C@]4(C)[C@H]3CC[C@]12C	≥ 160	> 160	30	> 160	Non-toxic	Non-toxic	> 160	> 160	–	–	–	–	–
CC(C)CCC[C@@H](C)[C@H]1CC[C@H]2[C@@H]3[C@@H](O)C=C4C[C@@H](O)CC[C@]4(C)[C@H]3CC[C@]12C	–	–	–	–	Toxic	–	20	55	15	60	15	15	19.9
CC(C)CCC[C@@H](C)[C@H]1CC[C@H]2[C@@H]3C(=O)C=C4C[C@@H](O)CC[C@]4(C)[C@H]3CC[C@]12C [7-OXOCHOLESTEROL]	–	–	–	–	Toxic	–	20	60	20	60	10	30	70.5
